Columns and labels:
[1] = gamma densitometer
[2] = wn = mass fraction of the nth substance listed; conditions: Liquid, gamma densitometer

C1CCCCC1 [cyclohexane]
[1], 5000 kPa, Fluid (supercritical or subcritical phases)
Conditions	mass density [kg/m3]
287 K	788.3
305.9 K	763.7
324.9 K	752.1
351 K	731.8
375 K	704.3
394.8 K	686.7
416.6 K	666.5
431.9 K	646.2
452.4 K	620.2
475.1 K	595.5
488.4 K	573.5
504.4 K	546.3
513.9 K	527.5
522.6 K	510.3
531.9 K	487
543 K	454.5
553.2 K	426.2
561.7 K	365.6
572.1 K	259.5
584.2 K	187
592.5 K	167
603.6 K	149.3
618.8 K	133
635 K	118.3
654.2 K	109.8
672.3 K	96.5
687.5 K	92
698.5 K	89.9

CCCCCCCC [octane] + CCCCCCC
[2]
Conditions	mass density [kg/m3]
303.1 K, 5100 kPa, w2 = 0.5	686.2
313.3 K, 5100 kPa, w2 = 0.5	678.1
323 K, 5100 kPa, w2 = 0.5	670
332.7 K, 5100 kPa, w2 = 0.5	663.3
344.1 K, 5100 kPa, w2 = 0.5	655.9
353.2 K, 5100 kPa, w2 = 0.5	645.5
362.9 K, 5100 kPa, w2 = 0.5	638.9
372.3 K, 5100 kPa, w2 = 0.5	632.3
374.7 K, 3300 kPa, w2 = 0.255	633.2
374.8 K, 8000 kPa, w2 = 0.255	640.4
380.5 K, 3200 kPa, w2 = 0.51	619.9
380.5 K, 8700 kPa, w2 = 0.51	631.1
383.2 K, 5100 kPa, w2 = 0.5	623.2
393 K, 5100 kPa, w2 = 0.5	611.8
405.1 K, 5100 kPa, w2 = 0.5	604.3
413.8 K, 5100 kPa, w2 = 0.5	592.5
424.2 K, 5100 kPa, w2 = 0.5	584.4
424.4 K, 4900 kPa, w2 = 0.51	582.4
424.5 K, 7200 kPa, w2 = 0.51	588
429.4 K, 3500 kPa, w2 = 0.255	584
429.4 K, 8300 kPa, w2 = 0.255	592.3
433.2 K, 5100 kPa, w2 = 0.5	573.5
443 K, 5100 kPa, w2 = 0.5	560.6
453.1 K, 5100 kPa, w2 = 0.5	554.4
464.5 K, 5100 kPa, w2 = 0.5	545.2
466.6 K, 3200 kPa, w2 = 0.51	535.5
466.7 K, 8600 kPa, w2 = 0.51	554.2
473.6 K, 5100 kPa, w2 = 0.5	531.6
475.8 K, 4400 kPa, w2 = 0.255	538.4
475.9 K, 8500 kPa, w2 = 0.255	554.4
484.2 K, 5100 kPa, w2 = 0.5	524
492.8 K, 5100 kPa, w2 = 0.5	508
503.1 K, 5100 kPa, w2 = 0.5	495.9
513.2 K, 5100 kPa, w2 = 0.5	483.6
518 K, 4900 kPa, w2 = 0.51	479.1
518 K, 7500 kPa, w2 = 0.51	494.8
522.4 K, 5100 kPa, w2 = 0.5	470.1
525.5 K, 4700 kPa, w2 = 0.255	473.6
525.5 K, 7300 kPa, w2 = 0.255	493.5
533 K, 5100 kPa, w2 = 0.5	451.2
543.3 K, 5100 kPa, w2 = 0.5	437.7
549.3 K, 5400 kPa, w2 = 0.51	427.9
549.4 K, 8700 kPa, w2 = 0.51	461.2
553 K, 5100 kPa, w2 = 0.5	415.1
557.2 K, 5300 kPa, w2 = 0.255	427.1
557.2 K, 8200 kPa, w2 = 0.255	460.9
563.5 K, 5100 kPa, w2 = 0.5	394
575.1 K, 5100 kPa, w2 = 0.5	372.9
583.8 K, 5100 kPa, w2 = 0.5	348.2
591.2 K, 5100 kPa, w2 = 0.5	319

O [water]
[1], Liquid
Conditions	mass density [kg/m3]
286 K, 3000 kPa	1000.7
288.3 K, 5000 kPa	1001.4
303.5 K, 5000 kPa	996.5
305 K, 3000 kPa	996.2
322.6 K, 3000 kPa	988.4
324.8 K, 5000 kPa	990.7
343.4 K, 3000 kPa	977.7
344.3 K, 5000 kPa	981.8
356.4 K, 3000 kPa	969
358.6 K, 5000 kPa	966.8
372.3 K, 5000 kPa	957.1
374.7 K, 3000 kPa	962.3
384 K, 5000 kPa	947
391.2 K, 3000 kPa	945
393.6 K, 5000 kPa	938.5
403.8 K, 5000 kPa	932.6
412.5 K, 3000 kPa	927.7
414.2 K, 5000 kPa	923
423.2 K, 5000 kPa	915.2
423.8 K, 3000 kPa	920.4
432.8 K, 5000 kPa	903.3
442.5 K, 3000 kPa	899.6
442.7 K, 5000 kPa	893.8
452.6 K, 5000 kPa	884.3
462 K, 5000 kPa	876.7
462.5 K, 3000 kPa	880.9
471.4 K, 3000 kPa	873.1
474.3 K, 5000 kPa	864.5
483.9 K, 3000 kPa	858.3
484.1 K, 5000 kPa	854.6
491.4 K, 5000 kPa	839.5
492.5 K, 3000 kPa	841.7
500.4 K, 3000 kPa	827.9
502.5 K, 5000 kPa	824.9
511 K, 5000 kPa	814.1

N#N [nitrogen]
mass density [kg/m3], [1], Gas
Conditions	293.2 K	473.2 K
100 kPa	1.15	0.68
600 kPa	7.36	3.79
1000 kPa	–	8
1100 kPa	11.22	–
1600 kPa	17.77	11.8
2100 kPa	23.64	14.69
2600 kPa	27.88	–
3100 kPa	33.96	21.05
3600 kPa	40.54	–
4000 kPa	–	27.65
4100 kPa	46.43	–
4600 kPa	53.49	–
5100 kPa	58.28	–
5600 kPa	62.2	–
6000 kPa	69.11	–
